Assay results published in patent US6444617B1, “Fused-heterocycle dicarboxylic acid diamide derivatives or salts thereof, herbicide and usage thereof” (Nihon Nohyaku Co., Ltd., priority 1998, dated 2002).

Tests used:
Format in all cases: in vivo
[1] = tested on: bulrush (Scirpus juncoides Roxb.); experiment: Test Example 1: herbicidal effect on paddy field weeds before emergence; settings: Dosage 5 kg/ha
Outline: (§1)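 Soil in pots is brought to paddy state and seeded with barnyard grass and bulrush; before germination, the soil receives a predetermined dosage of test compound in solution. After twenty-one days, control rate relative to untreated pots is calculated and graded.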

[2] = tested on: barnyard grass (Echinochloa crus-galli Beauv.); experiment: as above; settings: Dosage 5 kg/ha
Outline: as §1

[3] = tested on: cleavers (Galium aparine L.), Ga; experiment: Test Example 4: herbicidal effect on upland weeds after emergence; settings: dosage 5 kg/ha; sprayed after emergence; judged 14 days after treatment
Outline: (§2)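 Weeds and soybean grown in soil-filled vats to set leaf stages, then sprayed post-emergence with the compound at a prescribed concentration. Weed-killing rate and crop phytotoxicity judged 14 days after treatment.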

[4] = tested on: velvetleaf (Abutilon theophtasti L.), At; experiment: as above; settings: dosage 5 kg/ha; sprayed after emergence; judged 14 days after treatment
Outline: as §2

[5] = tested on: bird's eye speedwell (Veronica persica Poir.), Vp; experiment: as above; settings: dosage 5 kg/ha; sprayed after emergence; judged 14 days after treatment
Outline: as §2

[6] = tested on: cocklebur (Xanthium strumarium L.), Xs; experiment: as above; settings: dosage 5 kg/ha; sprayed after emergence; judged 14 days after treatment
Outline: as §2

[7] = tested on: forxtail grass (Alopecurus aequalis var. amurensis Ohwi), Am; experiment: as above; settings: dosage 5 kg/ha; sprayed after emergence; judged 14 days after treatment
Outline: as §2

[8] = tested on: barnyard grass (Echinochloa crus-galli Beauv.), Ec; experiment: as above; settings: dosage 5 kg/ha; sprayed after emergence; judged 14 days after treatment
Outline: as §2

wheat (Wh) = experiment: Test Example 3: phytotoxicity to upland crop plants, treatment before emergence; settings: dosage 5 kg/ha
Outline: (§3)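 Pre-emergence spray of a liquid preparation at a prescribed compound concentration. Soybean and wheat injury was scored against a phytotoxicity criterion 14 days after treatment, alongside weed control.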

soybean plant (So) = experiment: as above; settings: dosage 5 kg/ha
Outline: as §3

soybean plant = experiment: Test Example 4: phytotoxicity to upland crop plants, treatment after emergence; settings: dosage 5 kg/ha, sprayed after emergence, judged 14 days after treatment
Outline: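 Weeds, soybean and wheat were sown in soil-filled vats, covered with soil and grown to set leaf stages before a post-emergence spray of an agent containing the compound at a prescribed concentration. Weed-killing rate and crop phytotoxicity were assessed 14 days after treatment.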

wheat = experiment: as above; settings: dosage 5 kg/ha, sprayed after emergence, judged 14 days after treatment
Outline: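 Post-emergence foliar spray, compound at prescribed concentration, applied at defined leaf stages; weeds plus soybean/wheat grown in soil vats. Read-out: weed-killing rate and crop injury, 14 d post-treatment.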

[9] = tested on: bulrush (Scirpus juncoides Roxb.); experiment: Test Example 2: herbicidal effect on paddy field weeds after emergence; settings: Dosage 5 kg/ha; one-leaved stage; 21 days after treatment
Outline: (§4)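 Weeds in flooded paddy-soil pots were grown to the one-leaved stage, then the soil was treated with the compound solution at a set dosage.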

[10] = tested on: barnyard grass (Echinochloa crus-galli Beauv.); experiment: as above; settings: Dosage 5 kg/ha; one-leaved stage; 21 days after treatment
Outline: as §4

[11] = tested on: monochoria (Monochoria vaginalis Presl); experiment: as above; settings: Dosage 5 kg/ha; one-leaved stage; 21 days after treatment
Outline: as §4

[12] = tested on: cleavers (Galium aparine L.), Ga; experiment: Test Example 3: herbicidal effect on upland weeds before emergence; settings: dosage 5 kg/ha
Outline: (§5)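 Read-out is the weed-killing rate, scored fourteen days after a single spray application made before the weeds emerged. The spray was a liquid agent carrying the active compound at a prescribed dose.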

[13] = tested on: velvetleaf (Abutilon theophtasti L.), At; experiment: as above; settings: dosage 5 kg/ha
Outline: as §5

[14] = tested on: bird's eye speedwell (Veronica persica Poir.), Vp; experiment: as above; settings: dosage 5 kg/ha
Outline: as §5

[15] = tested on: cocklebur (Xanthium strumarium L.), Xs; experiment: as above; settings: dosage 5 kg/ha
Outline: as §5

[16] = tested on: forxtail grass (Alopecurus aequalis var. amurensis Ohwi), Am; experiment: as above; settings: foxtail grass, dosage 5 kg/ha
Outline: as §5

[17] = tested on: barnyard grass (Echinochloa crus-galli Beauv.), Ec; experiment: as above; settings: dosage 5 kg/ha
Outline: as §5

Row | SMILES | Pre-emergence treatment Bulrush (herbicidal effect) [1] | Pre-emergence treatment Barnyard grass (herbicidal effect) [2] | Herbicidal effect Ga [3] | Herbicidal effect At [4] | Herbicidal effect Vp [5] | Herbicidal effect Xs [6] | Herbicidal effect Am [7] | Herbicidal effect Ec [8] | Phytotoxicity Wh (wheat (Wh)) | Phytotoxicity So (soybean plant (So)) | Phytotoxicity So (soybean plant) | Phytotoxicity Wh (wheat) | Post-emergence treatment Bulrush (herbicidal effect) [9] | Post-emergence treatment Barnyard grass (herbicidal effect) [10] | Post-emergence treatment Monochoria (herbicidal effect) [11] | Herbicidal effect Ga [12] | Herbicidal effect At [13] | Herbicidal effect Vp [14] | Herbicidal effect Xs [15] | Herbicidal effect Am [16] | also measured
1 | CCCNC(=O)c1nc2ccn(OC)c2cc1C(=O)Nc1c(CC)ccc(Cl)c1CC [compound 895] | 5 (Weed-killing rate is 100%.) | 5 (Weed-killing rate is 100%.) | 5 (Weed-killing rate is 100%.) | 5 (Weed-killing rate is 100%.) | 5 (Weed-killing rate is 100%.) | 5 (Weed-killing rate is 100%.) | 5 (Weed-killing rate is 100%.) | 5 (Weed-killing rate is 100%.) | 5 (Crop-killing rate is 100%.) | 4 (Crop-killing rate is 90-99%.) | 4 (Crop-killing rate is 90-99%.) | 5 (Crop-killing rate is 100%.) | 5 (Weed-killing rate is 100%.) | 5 (Weed-killing rate is 100%.) | 5 (Weed-killing rate is 100%.) | 5 (Weed-killing rate is 100%.) | 5 (Weed-killing rate is 100%.) | 5 (Weed-killing rate is 100%.) | 5 (Weed-killing rate is 100%.) | 5 (Weed-killing rate is 100%.) | Herbicidal effect Ec [17]: 5 (Weed-killing rate is 100%.)
2 | CCNC(=O)c1nc2ccccc2nc1C(=O)Nc1c(CC)ccc(Cl)c1CC [compound 1305] | 5 (Weed-killing rate is 100%.) | 5 (Weed-killing rate is 100%.) | 5 (Weed-killing rate is 100%.) | 5 (Weed-killing rate is 100%.) | 5 (Weed-killing rate is 100%.) | 5 (Weed-killing rate is 100%.) | 5 (Weed-killing rate is 100%.) | 5 (Weed-killing rate is 100%.) | 5 (Crop-killing rate is 100%.) | 5 (Crop-killing rate is 100%.) | 5 (Crop-killing rate is 100%.) | 5 (Crop-killing rate is 100%.) | 5 (Weed-killing rate is 100%.) | 5 (Weed-killing rate is 100%.) | 5 (Weed-killing rate is 100%.) | 5 (Weed-killing rate is 100%.) | 5 (Weed-killing rate is 100%.) | 5 (Weed-killing rate is 100%.) | 5 (Weed-killing rate is 100%.) | 5 (Weed-killing rate is 100%.) | Herbicidal effect Ec [17]: 5 (Weed-killing rate is 100%.)
3 | CCNC(=O)c1nc2ccc(OC)cc2cc1C(=O)Nc1c(CC)ccc(Cl)c1CC [compound 289] | 5 (Weed-killing rate is 100%.) | 5 (Weed-killing rate is 100%.) | 4 (Weed-killing rate is 90-99%.) | 5 (Weed-killing rate is 100%.) | 5 (Weed-killing rate is 100%.) | 3 (Weed-killing rate is 70-89%.) | 4 (Weed-killing rate is 90-99%.) | 5 (Weed-killing rate is 100%.) | 2 (Crop-killing rate is 40-69%.) | 1 (Crop-killing rate is 1-39%.) | 1 (Crop-killing rate is 1-39%.) | 2 (Crop-killing rate is 40-69%.) | 4 (Weed-killing rate is 90-99%.) | 5 (Weed-killing rate is 100%.) | 5 (Weed-killing rate is 100%.) | 4 (Weed-killing rate is 90-99%.) | 5 (Weed-killing rate is 100%.) | 5 (Weed-killing rate is 100%.) | 3 (Weed-killing rate is 70-89%.) | 4 (Weed-killing rate is 90-99%.) | Herbicidal effect Ec [17]: 5 (Weed-killing rate is 100%.)
4 | CCc1ccc(Cl)c(CC)c1NC(=O)c1cc2c(nc1C(=O)NC1CCCC1)COCC2 [compound 447] | 5 (Weed-killing rate is 100%.) | 5 (Weed-killing rate is 100%.) | 5 (Weed-killing rate is 100%.) | 5 (Weed-killing rate is 100%.) | 5 (Weed-killing rate is 100%.) | 5 (Weed-killing rate is 100%.) | 5 (Weed-killing rate is 100%.) | 5 (Weed-killing rate is 100%.) | 5 (Crop-killing rate is 100%.) | 4 (Crop-killing rate is 90-99%.) | 4 (Crop-killing rate is 90-99%.) | 5 (Crop-killing rate is 100%.) | 5 (Weed-killing rate is 100%.) | 5 (Weed-killing rate is 100%.) | 5 (Weed-killing rate is 100%.) | 5 (Weed-killing rate is 100%.) | 5 (Weed-killing rate is 100%.) | 5 (Weed-killing rate is 100%.) | 5 (Weed-killing rate is 100%.) | 5 (Weed-killing rate is 100%.) | Herbicidal effect Ec [17]: 5 (Weed-killing rate is 100%.)
